Measurements taken from patent US7847108B2, “Oxathiin carboxamides” (Bayer CropScience AG, priority 2003, dated 2010).
Where two headings read alike, the source gives them in different places.

Assays:
[1] = tested on: Puccinia recondite; test: Puccinia test (wheat)/protective; type: in vivo; settings: 240 h, wheat plants, protective, application rate 500 g/ha, evaluation 10 days after inoculation, solvent/emulsifier parts 25/0.5, 25/0.6 or 50/1.0, read-out: % efficacy
Experimental: Puccinia Test (Wheat)/Protective • Solvent: N,N-dimethylacetamide • Emulsifier: alkylaryl polyglycol ether […] To test for protective activity, young plants are sprayed with the preparation of active compound at the stated application rate. After the spray coating has dried on, the plants are sprayed with a conidia suspension of Puccinia recondite. […] The plants are then placed in a greenhouse at a temperature of about 20° C. and a relative atmospheric humidity of 80% to promote the development of rust pustules.

[2] = logP determination by HPLC on reversed-phase column (EEC Directive 79/831 Annex V.A8); type: physicochemical; settings: reversed-phase C18 HPLC column
Experimental: The given logP values were determined in accordance with EEC Directive 79/831 Annex V.A8 by HPLC (High Performance Liquid Chromatography) on a reversed-phase column (C 18). Temperature: 43° C. […] Calibration was carried out using unbranched alkan-2-ones (having 3 to 16 carbon atoms) with known logP values (determination of the logP values by the retention times using linear interpolation between two successive alkanones).

[3] = tested on: Botrytis cinerea; test: Botrytis test (bean)/protective; type: in vivo; settings: 48 h, bean plants, protective, application rate 500 g/ha, evaluation 2 days after inoculation, read-out: % efficacy
Experimental: Botrytis Test (Bean)/Protective
• Solvents:24.5 parts by weight of acetone 24.5 parts by weight of dimethylacetamide • Emulsifier: 1 part by weight of alkylaryl polyglycol ether
(§1) To produce a suitable preparation of active compound, 1 part by weight of active compound is mixed with the stated amounts of solvents and emulsifier, and the concentrate is diluted with water to the desired concentration.
To test for protective activity, young plants are sprayed with the preparation of active compound at the stated application rate. After the spray coating has dried on, 2 small pieces of agar colonized with Botrytis cinerea are placed onto each leaf. The inoculated plants are placed in a dark chamber at about 20° C. and 100% relative atmospheric humidity.
2 days after the inoculation, the size of the infected areas on the leaves is evaluated. 0% means an efficacy which corresponds to that of the control, whereas an efficacy of 100% means that no infection is observed.

[4] = tested on: Alternaria solani; test: Alternaria test (tomato)/protective; type: in vivo; settings: tomato plants, protective, application rate 750 g/ha, evaluation 7 days after inoculation
Experimental: Alternaria Test (Tomato)/Protective
• Solvent: 49 parts by weight of N,N-dimethylformamide • Emulsifier: 1 part by weight of alkylaryl polyglycol ether
To produce a suitable preparation of active compound, 1 part by weight of active compound is mixed with the stated amounts of solvent and emulsifier, and the concentrate is diluted with water to the desired concentration.
To test for protective activity, young tomato plants are sprayed with the preparation of active compound at the stated application rate. 1 day after the treatment, the plants are inoculated with a spore suspension of Alternaria solani and are then allowed to stand at 100% relative humidity and 20° C. for 24 h. The plants are then allowed to stand at 96% relative atmospheric humidity and a temperature of 20° C.
Evaluation is carried out 7 days after the inoculation. 0% means an efficacy which corresponds to that of the control, whereas an efficacy of 100% means that no infection is observed.

[5] = tested on: Venturia inaequalis; test: Venturia test (apple)/protective; type: in vivo; settings: 240 h, apple plants, protective, application rate 100 g/ha, evaluation 10 days after inoculation, read-out: % efficacy
Experimental: Venturia Test (Apple)/Protective
• Solvents: 24.5 parts by weight of acetone 24.5 parts by weight of dimethylacetamide • Emulsifier: 1 part by weight of alkylaryl polyglycol ether
as §1
To test for protective activity, young plants are sprayed with the preparation of active compound at the stated application rate. After the spray coating has dried on, the plants are inoculated with an aqueous conidia suspension of the apple scab pathogen Venturia inaequalis and then remain in an incubation cabin at about 20° C. and 100% relative atmospheric humidity for 1 day.
The plants are then placed in a greenhouse at about 21° C. and a relative atmospheric humidity of about 90%.
Evaluation is carried out 10 days after the inoculation. 0% means an efficacy which corresponds to that of the control, whereas an efficacy of 100% means that no infection is observed.

[6] = Table 1 logP / m.p., C18, 43° C., acidic range (pH 2.3), read-out: logP

Row | chromatographic logP [2, 6] | chromatographic logP ([2]; pH 2.3, C18, 43° C., read-out: logP (pH 2.3)) | Structure (SMILES) | pest or weed control at 500 g/ha [1] [%] | pest or weed control at 500 g/ha [3] [%] | % efficacy [4] [%] | pest or weed control at 100 g/ha [5] [%]
1 | 4.08 | – | CC/C(=N\OC)c1ccc(-c2ccccc2NC(=O)C2=C(C(F)(F)F)OCCS2)cc1 [Example 56] | 88 | – | – | –
2 | 3.82 | – | O=C(Nc1ccccc1-c1ccc(Cl)cc1Cl)C1=C(C(F)(F)F)OCCS1 [Example 79] | 86 | – | – | –
3 | 3.69 | – | O=C(Nc1ccccc1-c1ccc(Br)c(F)c1)C1=C(C(F)(F)F)OCCS1 [Example 57] | 88 | – | – | –
4 | 3.89 | – | Cc1ccc(-c2ccccc2NC(=O)C2=C(C(F)(F)F)OCCS2)cc1Cl [Example 38] | 88 | – | – | –
5 | 4.38 | – | CC(CC1CCCC1)c1ccccc1NC(=O)C1=C(C(F)(F)F)OCCS1 (stereo not drawn) [Example 37] | 93 | – | – | –
6 | 3.75 | – | O=C(Nc1ccccc1-c1ccc(C(F)(F)F)c(F)c1)C1=C(C(F)(F)F)OCCS1 [Example 29] | 94 | – | – | –
7 | 4.03 | – | CC(C)CC(C)c1ccccc1NC(=O)C1=C(C(F)F)OCCS1 (stereo not drawn) [Example 82] | 100 | – | – | –
8 | 3.7 | – | O=C(Nc1ccccc1-c1ccc(Br)cc1)C1=C(C(F)(F)F)OCCS1 [Example 27] | 88 | – | – | –
9 | 3.65 | – | Cc1cc(-c2ccccc2NC(=O)C2=C(C(F)(F)F)OCCS2)ccc1F [Example 35] | 88 | – | – | –
10 | 4 | – | Cc1cc(Cl)ccc1-c1ccccc1NC(=O)C1=C(C(F)(F)F)OCCS1 [Example 26] | – | – | 100 | –

The remaining lines, values behind:

Row | Structure (SMILES) | chromatographic logP [2, 6] | chromatographic logP ([2]; pH 2.3, C18, 43° C., read-out: logP (pH 2.3)) | pest or weed control at 500 g/ha [1] [%] | pest or weed control at 500 g/ha [3] [%] | % efficacy [4] [%] | pest or weed control at 100 g/ha [5] [%]
11 | O=C(Nc1ccccc1-c1ccc(Cl)c(Cl)c1)C1=C(C(F)(F)F)OCCS1 [Example 19] | 3.91 | – | 100 | 100 | 100 | 100
12 | O=C(Nc1ccccc1-c1ccc(Cl)c(F)c1)C1=C(C(F)(F)F)OCCS1 [Example 23] | 3.62 | – | 89 | – | – | –
13 | CC(C)CC(C)c1ccccc1NC(=O)C1=C(C(F)(F)F)OCCS1 (stereo not drawn) [Example 18] | 3.92 | – | 100 | 100 | – | 100
14 | CC(CC(C)(C)C)c1ccccc1NC(=O)C1=C(C(F)(F)F)OCCS1 (stereo not drawn) [Example 2, N-[2-(1,3,3-trimethylbutyl)phenyl]-6-trifluoromethyl-2,3-dihydro-1,4-oxathiin-5-carboxamide] | – | 4.18 | 100 | 100 | 100 | 98
15 | O=C(Nc1ccccc1-c1ccc(F)c(Cl)c1)C1=C(C(F)(F)F)OCCS1 [Example 24] | 3.6 | – | 100 | – | – | –
16 | CCCO/N=C/c1ccc(-c2ccccc2NC(=O)C2=C(C(F)(F)F)OCCS2)cc1 [Example 22] | 4.25 | – | – | 100 | – | 100
17 | CC1CC(C)(C)c2cccc(NC(=O)C3=C(C(F)(F)F)OCCS3)c21 (stereo not drawn) [Example 12] | – | – | – | 97 | – | 100
18 | O=C(Nc1ccc(F)cc1-c1ccc(Cl)c(Cl)c1)C1=C(C(F)(F)F)OCCS1 [Example 17] | 3.95 | – | 86 | 96 | – | 100
19 | CC(C)O/N=C/c1ccc(-c2ccccc2NC(=O)C2=C(C(F)(F)F)OCCS2)cc1 [Example 21] | 4.22 | – | – | 100 | 100 | 100
20 | O=C(Nc1ccccc1-c1ccc(C(F)(F)F)cc1)C1=C(C(F)(F)F)OCCS1 [Example 20] | 3.73 | – | – | 100 | – | 88
